# Measurements published in the supplement of paper PMC11061612.
# How the values were obtained:
# [1] = compound: C1CN(CCC1(C(=O)N[C@@H](CCO)C2=CC=C(C=C2)Cl)N)C3=NC=NC4=C3C=CN4 [Capivasertib]; conditions: max 10 µM
# Method in brief: (§1)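 After 24 hours at 37°C and 5% CO2 in 1536-well plates holding 7.5 μl of DMEM/F12 or RPMI with 10% FBS, cancer cell lines were dosed for 72 hours, with final DMSO typically 0.2%. Viability came from CellTiter-Glo 2.0 luminescence, scaled between the means of blank wells and DMSO wells. A non-linear mixed effects model fitted a two-parameter logistic curve to each dose response to give the single-agent IC50.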
# [2] = compound: C=CCn1c(=O)c2cnc(Nc3ccc(N4CCN(C)CC4)cc3)nc2n1-c1cccc(C(C)(C)O)n1 [AZD1775]; conditions: max 3 µM
# Method in brief: as §1
# [3] = compound: CC(=O)Nc1cccc(-n2c(=O)n(C3CC3)c(=O)c3c(Nc4ccc(I)cc4F)n(C)c(=O)c(C)c32)c1 [Trametinib]; conditions: max 1 µM
# Method in brief: as §1
# [4] = compound: CC(=O)c1c(C)c2cnc(Nc3ccc(N4CCNCC4)cn3)nc2n(C2CCCC2)c1=O [Palbociclib]; conditions: max 10 µM
# Method in brief: as §1
# [5] = compound: CC(C)n1c(=O)n(C)c2cnc3cc(F)c(-c4ccc(OCCCN5CCCCC5)nc4)cc3c21 [AZD1390]; conditions: max 0.3 µM
# Method in brief: as §1
# [6] = compound: CC1(C)CCC(CN2CCN(c3ccc(C(=O)NS(=O)(=O)c4ccc(NCC5CCOCC5)c([N+](=O)[O-])c4)c(Oc4cnc5[nH]ccc5c4)c3)CC2)=C(c2ccc(Cl)cc2)C1 [Venetoclax]; conditions: max 1 µM
# Method in brief: as §1
# [7] = compound: CC1=C(C(=CC=C1)Cl)NC(=O)C2=CN=C(S2)NC3=CC(=NC(=N3)C)N4CCN(CC4)CCO [Dasatinib]; conditions: max 2 µM
# Method in brief: as §1
# [8] = compound: CC1=CN2[C@@H](C1)C=NC3=CC(=C(C=C3C2=O)OC)OCCCCCOC4=C(C=C5C(=C4)N=C[C@@H]6CC(=CN6C5=O)C)OC [SG3199]; conditions: max 0.001 µM
# Method in brief: as §1
# [9] = compound: CCN(CCO)CCCOc1ccc2c(Nc3cc(CC(=O)Nc4cccc(F)c4)[nH]n3)ncnc2c1 [AZD2811]; conditions: max 1 µM
# Method in brief: as §1
# [10] = compound: CCc1c2c(nc3ccc(O)cc13)-c1cc3c(c(=O)n1C2)COC(=O)[C@]3(O)CC [SN-38]; conditions: max 0.3 µM
# Method in brief: as §1
# [11] = compound: CN(C)CCCOc1ccc(-c2ccc3ncc4c(c3c2)n(C2CCOCC2)c(=O)n4C)cn1 [AZD0156]; conditions: max 3 µM
# Method in brief: as §1
# [12] = compound: CN(CC[C@H](CSC1=CC=CC=C1)NC2=C(C=C(C=C2)S(=O)(=O)NC(=O)C3=CC=C(C=C3)N4CCC(CC4)[C@H](C5=CC=CC=C5C6=CC=C(C=C6)Cl)O)S(=O)(=O)C(F)(F)F)CCO [AZD4320]; conditions: max 1 µM
# Method in brief: as §1
# [13] = compound: COc1cc(Nc2ncc3c(n2)-c2ccc(Cl)cc2C(c2c(F)cccc2OC)=NC3)ccc1C(=O)O [Alisertib]; conditions: max 10 µM
# Method in brief: as §1
# [14] = compound: COc1cc2ncnc(Nc3ccc(F)c(Cl)c3)c2cc1OCCCN1CCOCC1 [Gefitinib]; conditions: max 10 µM
# Method in brief: as §1
# [15] = compound: COc1cccc(OCCCN)c1-c1cc(Nc2cnc(C#N)cn2)n[nH]1 [Prexasertib]; conditions: max 1 µM
# Method in brief: as §1
# [16] = compound: COc1cccc2c1C(=O)c1c(O)c3c(c(O)c1C2=O)C[C@@](O)(C(=O)CO)C[C@@H]3O[C@H]1C[C@H](N)[C@H](O)[C@H](C)O1 [Doxorubicin]; conditions: max 1 µM
# Method in brief: as §1
# [17] = compound: COc1nnc2ccc(N3CCC(c4ccc(OCCN5CCN(C)C(=O)[C@H]5C)cc4)CC3)nn12 [AZD5153]; conditions: max 1 µM
# Method in brief: as §1
# [18] = compound: CS(=O)(=O)CCNCc1ccc(-c2ccc3ncnc(Nc4ccc(OCc5cccc(F)c5)c(Cl)c4)c3c2)o1 [Lapatinib]; conditions: max 10 µM
# Method in brief: as §1
# [19] = compound: C[C@@H](Nc1cc(F)cc(F)c1)c1cc(C(=O)N(C)C)cc2c(=O)cc(N3CCOCC3)oc12 [AZD8186]; conditions: max 3 µM
# Method in brief: as §1
# [20] = compound: C[C@@H](Oc1cc(-c2cnn(C3CCNCC3)c2)cnc1N)c1c(Cl)ccc(F)c1Cl [Crizotinib]; conditions: max 10 µM
# Method in brief: as §1
# [21] = compound: C[C@@H](c1ccc2nccn2c1)n1nnc2ncc(-c3cnn(C)c3)nc21 [Savolitinib]; conditions: max 1 µM
# Method in brief: as §1
# [22] = compound: C[C@@H]1COCCN1C2=NC(=NC(=C2)C3(CC3)[S@](=N)(=O)C)C4=C5C=CNC5=NC=C4 [AZD6738]; conditions: max 10 µM
# Method in brief: as §1
# [23] = compound: Cc1c2c(nn1C)CSCc1cc(n(C)n1)CSc1cc(c3ccccc3c1)OCCCc1c(C(=O)O)n(C)c3c-2c(Cl)ccc13 [AZD5991]; conditions: max 1 µM
# Method in brief: as §1
# [24] = compound: Cc1cc2ncnn2cc1Nc1ncc2c(n1)n(C1CCOCC1)c(=O)n2C [AZD7648]; conditions: max 10 µM
# Method in brief: as §1
# [25] = compound: Cc1nc(-c2cn3c(n2)-c2ccc(-c4cnn(C(C)(C)C(N)=O)c4)cc2OCC3)n(C(C)C)n1 [Taselisib]; conditions: max 10 µM
# Method in brief: as §1
# [26] = compound: Cn1cnc2c(F)c(Nc3ccc(Br)cc3Cl)c(C(=O)NOCCO)cc21 [Selumetinib]; conditions: max 10 µM
# Method in brief: as §1
# [27] = compound: NC1(c2ccc(-c3nc4ccn5c(=O)[nH]nc5c4cc3-c3ccccc3)cc2)CCC1 [MK-2206]; conditions: max 10 µM
# Method in brief: as §1
# [28] = compound: O=C(c1cc(Cc2n[nH]c(=O)c3ccccc23)ccc1F)N1CCN(C(=O)C2CC2)CC1 [Olaparib]; conditions: max 10 µM
# Method in brief: as §1
Cell Line,"IC50, cell viability 72 h [1] [nM]","IC50, cell viability 72 h [2] [nM]","IC50, cell viability 72 h [3] [nM]","IC50, cell viability 72 h [4] [nM]","IC50, cell viability 72 h [5] [nM]","IC50, cell viability 72 h [6] [nM]","IC50, cell viability 72 h [7] [nM]","IC50, cell viability 72 h [8] [nM]","IC50, cell viability 72 h [9] [nM]","IC50, cell viability 72 h [10] [nM]","IC50, cell viability 72 h [11] [nM]","IC50, cell viability 72 h [12] [nM]","IC50, cell viability 72 h [13] [nM]","IC50, cell viability 72 h [14] [nM]","IC50, cell viability 72 h [15] [nM]","IC50, cell viability 72 h [16] [nM]","IC50, cell viability 72 h [17] [nM]","IC50, cell viability 72 h [18] [nM]","IC50, cell viability 72 h [19] [nM]","IC50, cell viability 72 h [20] [nM]","IC50, cell viability 72 h [21] [nM]","IC50, cell viability 72 h [22] [nM]","IC50, cell viability 72 h [23] [nM]","IC50, cell viability 72 h [24] [nM]","IC50, cell viability 72 h [25] [nM]","IC50, cell viability 72 h [26] [nM]","IC50, cell viability 72 h [27] [nM]","IC50, cell viability 72 h [28] [nM]"
ASH-3 (Thyroid Gland Carcinoma),> 10000,> 3000,> 1000,> 10000,> 300,> 1000,1240,> 1,> 1000,28.8,> 3000,> 1000,> 10000,> 10000,569,688,283,> 10000,> 3000,> 10000,> 1000,> 10000,> 1000,> 10000,6860,> 10000,> 10000,> 10000
KU-19-19 (Bladder Carcinoma),> 10000,462,6.44,> 10000,> 300,> 1000,711,> 1,> 1000,41.6,> 3000,> 1000,5630,> 10000,36.1,447,117,> 10000,> 3000,> 10000,> 1000,2160,> 1000,> 10000,> 10000,678,> 10000,> 10000
KYSE-50 (Esophageal Squamous Cell Carcinoma),> 10000,1820,> 1000,> 10000,> 300,> 1000,263,> 1,> 1000,> 300,> 3000,> 1000,3860,> 10000,108,> 1000,664,> 10000,> 3000,> 10000,> 1000,8940,> 1000,> 10000,8390,> 10000,,> 10000
KYSE-150 (Esophageal Squamous Cell Carcinoma),> 10000,1150,498,> 10000,> 300,> 1000,> 2000,> 1,> 1000,117,> 3000,> 1000,5850,> 10000,> 1000,158,420,3190,> 3000,4280,> 1000,> 10000,> 1000,> 10000,1340,> 10000,> 10000,> 10000
LOU-NH91 (Squamous Cell Lung Carcinoma),> 10000,1350,> 1000,> 10000,> 300,> 1000,657,> 1,> 1000,17.1,> 3000,> 1000,> 10000,> 10000,> 1000,542,239,> 10000,> 3000,> 10000,> 1000,> 10000,> 1000,> 10000,5870,> 10000,,> 10000
MFE-319 (Endometrial Carcinoma),> 10000,740,> 1000,> 10000,> 300,> 1000,> 2000,> 1,> 1000,> 300,> 3000,> 1000,> 10000,> 10000,51.5,> 1000,> 1000,> 10000,> 3000,> 10000,> 1000,4510,> 1000,> 10000,9920,> 10000,> 10000,> 10000
NCI-H322M (Lung Adenocarcinoma),> 10000,349,156,> 10000,> 300,> 1000,1960,> 1,> 1000,98.7,> 3000,> 1000,> 10000,816,10.6,735,742,7360,> 3000,> 10000,> 1000,1130,> 1000,> 10000,692,2890,,> 10000
